The values below come from PubChem BioAssay AID2305 (GlaxoSmithKline (GSK), 2010).

Each structure is given as a SMILES string.

This assay concerns P. falciparum 3D7 growth, pLDH absorbance. As to the kind of experiment: blood-stage malaria parasite growth potency – strain 3D7, dose response (AID 2305).
Regarding `Cn1cncc1C(=O)Nc1cccc(-c2ccc(-c3nc4ccc(F)cc4[nH]3)s2)c1`, the IC50 – broadly, the concentration that inhibits the measured activity by half – turned out to be 870 nM.

`CCCC(CNCc1ccccc1)CNc1cc(=O)c2ccccc2[nH]1` (stereo not drawn) registered an IC50 of 1020 nM.

Take `O=C(Cc1ccccc1)NC1CCN(c2ccnc3cc(Cl)ccc23)C1` (stereo not drawn): the IC50 was determined as 800 nM.

Turning to `CCCCC(CC)NC(=O)[C@H]1CNCCN1C(=O)CCCc1ccccc1` (stereo partly drawn), the IC50 was determined as 890 nM.

The compound `CCCCCCSc1nnc(COc2cccc3ccccc23)n1-c1ccc(OC)cc1` had an IC50 of 50 nM.

For `Cc1[nH]c2ccccc2c(=O)c1[N+](=O)[O-]`, the concentration for half-maximal inhibition (IC50) turned out to be 1110 nM.

Compound `NC(N)=NC(=O)Nc1cc(F)c(Cl)c(Br)c1` displayed a half-inhibitory concentration (IC50) of 990 nM.

In the case of `Cc1cc(OCCCN2CCN(CCN3CCOCC3)CC2)ccc1NC(=O)COc1ccc(Cl)cc1C(=O)c1cc(Cl)cc(C#N)c1`, the 50% inhibitory concentration (IC50) was determined as 700 nM.

Compound `c1ccc2[nH]c(-c3ccc(-c4ccc(CNCC5CCCO5)cc4)s3)nc2c1` (stereo not drawn) gave a half-maximal inhibitory concentration (IC50) of 870 nM.

Turning to `CCN1CCC(N(Cc2ccc(-c3ccc(C(F)(F)F)cc3)cc2)C(=O)Cn2c(SCc3cccc(F)c3F)cc(=O)c3ccccc32)C1` (stereo not drawn), the IC50 is 880 nM.

For the compound `O=[N+]([O-])c1ccc(C2=NN(S(=O)(=O)c3c(Cl)cc(Cl)cc3Cl)CCCC2)cc1`, the IC50 was 130 nM.

`O=C(C=Cc1ccccc1O)N1CCC(CN2CCC(c3c[nH]c4ccccc34)CC2)CC1`: the half-maximal inhibitory concentration (IC50) was 960 nM.

`Cc1cc(C(=O)Nc2ccc3c(c2)CCN3C2CCN(Cc3ccc(F)cc3Cl)C2)no1` (stereo not drawn) showed a concentration for half-maximal inhibition (IC50) of 190 nM.

The compound `CCc1cn2c3c(cc(C(=O)N[C@@H](Cc4ccccc4)[C@H](O)CNCc4ccccc4C)cc13)N(C)S(=O)(=O)CC2` had an IC50 of 270 nM.

With `CC(C)CC(NC(=O)c1ccc(F)cc1)C(=O)N[C@H](/C=N/N1CCNC1=O)CC(C)C` (stereo partly drawn), the IC50 is 1030 nM.

As for `c1ccc2c(NCCCCCCCCCNc3c4ccccc4nc4ccccc34)c3ccccc3nc2c1`, the concentration for half-maximal inhibition (IC50) came to 300 nM.

On to `CN(c1ccc(NC(=O)c2ccc(F)cc2)cc1)C1CCN(Cc2cccc(F)c2)C1` (stereo not drawn), for which the IC50 stood at 1410 nM.

As to `O=C(Nc1ccc(C(F)(F)F)cc1)NC1CCN(CCCCCNC(=O)[C@@H]2C[C@H]2c2ccc(Cl)c(Cl)c2)CC1`, the half-maximal inhibitory concentration (IC50) was found to be 630 nM.

The compound `CNCCNCc1ccc(-c2cccc(-c3nc4ccc(F)cc4[nH]3)c2)cc1` had an IC50 of 1130 nM.

Compound `c1cncc(NCc2ccc(-c3cc4ccncc4cc3OC3CCNCC3)s2)c1` came in with a half-maximal inhibitory concentration (IC50) of 980 nM.

Compound `CC(C)CNCc1ccc(-c2cccc(CN(CCCN3CCN(C)CC3)C(=O)/C=C/c3ccccc3)c2)cc1` came in with an IC50 of 870 nM.

Turning to `O=C(Nc1ccc2c(c1)OCCO2)c1cc(-c2cccnc2)nc2ccc(Cl)cc12`, the half-maximal inhibitory concentration (IC50) came out at 710 nM.

Turning to `CC(CCCCCC(=O)Nc1ccc(CC(C)NCCc2cccc(Cl)c2)cc1)NCCc1cccc(Cl)c1` (stereo not drawn), the IC50 turned out to be 950 nM.

With `COc1ccc(NC(=O)/C=C/c2cc(Br)ccc2F)cc1OCCN(C(C)C)C(C)C`, the half-inhibitory concentration (IC50) was found to be 760 nM.

`Cc1ccccc1OCCCc1c(C)nc(N)nc1N` yielded a half-inhibitory concentration (IC50) of 280 nM.

Compound `CCC(COCc1ccc(Cl)cc1)N(C)CCN(C)C(CC)COCc1ccc(Cl)cc1` (stereo not drawn) had an IC50 of 1060 nM.

On to `COc1ccc2c(c1C1CCN(CCCCNC(=O)c3ccc(-c4ccc(Cl)cn4)cc3)CC1)CCCC2`, for which the concentration for half-maximal inhibition (IC50) was 1020 nM.

In turn, `NC(=O)C1CCN(Cc2ccc(-c3ccc(-c4nc5ccc(C(F)(F)F)cc5[nH]4)cc3)cc2)CC1` displayed a half-inhibitory concentration (IC50) of 680 nM.

Compound `N#Cc1ccc2c(c1)CCN(CCC1CCC(NC(=O)/C=C/c3ccc4[nH]ccc4c3)CC1)CC2` (stereo not drawn) gave a half-maximal inhibitory concentration (IC50) of 1060 nM.

For the compound `CCN(CCO)CCCC(C)Nc1ccnc2cc(Cl)ccc12` (stereo not drawn), the concentration for half-maximal inhibition (IC50) is 760 nM.

`Cc1ccc(C(CC(=O)Nc2nccs2)c2ccc(OC(C)C)cc2)cc1` (stereo not drawn) had an IC50 of 480 nM.

`Cc1ccc(-c2[nH]n3c(=O)c4c(nc3c2C)CCCC4)cc1`: the IC50 stood at 220 nM.

In turn, `O=C(/C=C/c1ccc(Cl)c(Cl)c1)NCCCCCN1CCCN(C(=O)Nc2ccc(Cl)c(Cl)c2)CC1` showed a half-inhibitory concentration (IC50) of 860 nM.

The compound `N#Cc1ccc(/C=C/C(=O)NCCCCCN2CCN(C(=O)Nc3ccc(Cl)c(C(F)(F)F)c3)CC2)cc1` had a half-maximal inhibitory concentration (IC50) of 780 nM.

Compound `O=C(NCCCCN1CCC(c2ccc3c(c2O)CCCC3)CC1)c1ccc(-c2ccc(Cl)cc2)cc1` showed an IC50 of 750 nM.

The compound `O=C1CSc2ccc(CNC3CCN(CCc4c(Cl)cnc5ccc(F)cc45)CC3)nc2N1` returned an IC50 of 430 nM.

With `Fc1ccccc1-c1cc(Nc2ccncc2)nc(-c2cccnc2)n1`, the IC50 came out at 260 nM.

The compound `Cc1ccc2c(NN=CC=Cc3ccccc3)cc(C)nc2c1` returned an IC50 of 1120 nM.

`CC(C)c1ccc(C(NC(=O)C2CCCCC2)c2ccc3cccnc3c2O)cc1` (stereo not drawn) had an IC50 of 600 nM.

`CC(C)CNCc1cccc(-c2cccc(CNC3CCN(Cc4ccccc4)CC3)c2)c1` gave an IC50 of 180 nM.

Turning to `CC(CN1CCN(C)CC1)C(=O)Nc1cccc(-c2cccc(-c3nc4ccccc4[nH]3)c2)c1` (stereo not drawn), the IC50 was 1010 nM.

In turn, `CCc1cc(C(=O)c2cccc(C)c2)c(NC(=O)CN2CCN(C(=O)c3ccco3)CC2)s1` yielded a half-maximal inhibitory concentration (IC50) of 450 nM.

`Cn1ncc2c3c(CCN4CCC(NCc5cc6c(cn5)OCCO6)CC4)c(Cl)cnc3ccc21` had an IC50 of 770 nM.

As for `COc1ccc(CN2CCCN(Cc3cccc(NC(=O)c4cc5ccccc5s4)c3)CC2)cc1`, the concentration for half-maximal inhibition (IC50) was determined as 840 nM.

For the compound `O=C(Nc1ccc(N2CCCCC2)c(Cl)c1)c1ccco1`, the half-maximal inhibitory concentration (IC50) is 410 nM.

With `COc1ccc(NC(=O)CSc2nc(-c3ccccc3Cl)ns2)cc1OC`, the IC50 was determined as 760 nM.

`Cc1ccc(S(=O)(=O)N2CCN(C(=O)c3cc(-c4cccs4)[nH]n3)CC2)c(C)c1`: the half-maximal inhibitory concentration (IC50) was found to be 870 nM.

Take `CC1(C)N=C(N)N=C(N)N1c1cccc(I)c1`: the IC50 turned out to be 130 nM.

In the case of `CN(C)CCNC(=O)[C@H](Cc1ccccc1)NC(=O)c1ccc(O)c(-c2ccc(Cl)c(Cl)c2)c1`, the IC50 came out at 710 nM.

Consider `CN(C)CCOc1ccc2[nH]c(-c3cccc(OCc4ccccc4)c3)nc2c1C#N`, for which the IC50 was 260 nM.

In turn, `CCCc1c(C(=O)Nc2ccc3c(c2)CCN(C2CCC2)CC3)cnn1-c1ccc(Cl)cc1` displayed a 50% inhibitory concentration (IC50) of 860 nM.

In turn, `CCC[C@@H](/C=N/N(C)C(=O)OC(C)(C)C)NC(=O)[C@H](CC(C)C)NC(=O)c1cc2cccc(OC)c2o1` had an IC50 of 1080 nM.

For `COc1ccc(NC(=O)[C@H](CC(C)C)Nc2ccnc(Nc3ccccc3)n2)cc1`, the concentration for half-maximal inhibition (IC50) was determined as 1570 nM.

Consider `Cc1cccc2[nH]c(-c3ccc(-c4ccc(CNC(C)C)cc4)cc3)nc12`, for which the IC50 was 680 nM.

Regarding `O=C(NC1CCN(c2ccnc3cc(Cl)ccc23)C1)c1ccc(F)cc1` (stereo not drawn), the half-inhibitory concentration (IC50) was 190 nM.

Regarding `CN1CCN(Cc2ccc(-c3ccc4c(Nc5cc(O)c(Cl)cc5F)ccnc4c3)o2)CC1`, the IC50 is 110 nM.

The compound `CC[C@H]1CN2CC[C@H]1C[C@H]2[C@H](O)c1cc(-c2ccccc2C)nc2ccc(OC)cc12` displayed an IC50 of 200 nM.

For `CC(=O)Nc1ccc(CNC2Cc3ccc(-c4ccc(Cl)c(Cl)c4)cc3C2)cc1` (stereo not drawn), the concentration for half-maximal inhibition (IC50) stood at 1000 nM.

In the case of `Cc1ccc2c(c1)nc(N)n2C[C@H](O)c1ccccc1`, the half-maximal inhibitory concentration (IC50) amounted to 580 nM.

`Cc1cc(N)nc2cc(CNCCc3ccccc3Br)ccc12`: the IC50 was 130 nM.

`CC(C)CCNCC(O)Cn1c2ccc(Cl)cc2c2cc(Cl)ccc21` (stereo not drawn) yielded a half-maximal inhibitory concentration (IC50) of 450 nM.

`CS(=O)(=O)Cc1ccc(Nc2nccc(-c3c(-c4cccc(C(=O)Nc5c(F)cccc5F)c4)nn4ccccc34)n2)cc1` registered an IC50 of 530 nM.

On to `O=C(Nc1ccc(-c2cccc(-c3nc4ccc(C(F)(F)F)cc4[nH]3)c2)cc1)Nc1ccc(F)c(F)c1F`, for which the IC50 is 710 nM.
